Test results from PubChem BioAssay (NCI).
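Method: 48-hour compound exposure of cells in 96-well plates, five concentrations, linear interpolation of endpoints. TGI denotes the concentration required for complete inhibition of growth.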

How the values were obtained:
Assay in all cases: NCI anticancer screen, dose series, 48 h
SF-539 CNS = test system: SF-539 CNS
T-47D breast = test system: T-47D breast
UACC-257 melanoma = test system: UACC-257 melanoma
IGROV1 ovarian = test system: IGROV1 ovarian
UO-31 renal = test system: UO-31 renal
SK-MEL-2 melanoma = test system: SK-MEL-2 melanoma
HS 578T breast = test system: HS 578T breast
SK-MEL-28 melanoma = test system: SK-MEL-28 melanoma
NCI-H23 lung = test system: NCI-H23 lung
SF-268 CNS = test system: SF-268 CNS
HCT-116 colon = test system: HCT-116 colon
TK-10 renal = test system: TK-10 renal
SR leukemia = test system: SR leukemia
U251 CNS = test system: U251 CNS
BT-549 breast = test system: BT-549 breast
DU-145 prostate = test system: DU-145 prostate
RXF 393 renal = test system: RXF 393 renal
KM12 colon = test system: KM12 colon
NCI-H522 lung = test system: NCI-H522 lung
K-562 leukemia = test system: K-562 leukemia
A549 NSCLC = test system: A549 NSCLC
HOP-92 NSCLC = test system: HOP-92 NSCLC
NCI/ADR-RES ovarian = test system: NCI/ADR-RES ovarian
EKVX NSCLC = test system: EKVX NSCLC
HCT-15 colon = test system: HCT-15 colon
MDA-MB-435 = test system: MDA-MB-435
PC-3 prostate = test system: PC-3 prostate
SK-MEL-5 melanoma = test system: SK-MEL-5 melanoma
SK-OV-3 ovarian = test system: SK-OV-3 ovarian
RPMI-8226 leukemia = test system: RPMI-8226 leukemia
M14 melanoma = test system: M14 melanoma
CAKI-1 renal = test system: CAKI-1 renal
SW-620 colon = test system: SW-620 colon
OVCAR-5 ovarian = test system: OVCAR-5 ovarian
UACC-62 melanoma = test system: UACC-62 melanoma
CCRF-CEM leukemia = test system: CCRF-CEM leukemia
OVCAR-4 ovarian = test system: OVCAR-4 ovarian
786-0 renal = test system: 786-0 renal
A498 renal = test system: A498 renal
NCI-H226 lung = test system: NCI-H226 lung
ACHN renal = test system: ACHN renal
HOP-62 NSCLC = test system: HOP-62 NSCLC
LOX IMVI melanoma = test system: LOX IMVI melanoma
SF-295 CNS = test system: SF-295 CNS
MCF7 breast = test system: MCF7 breast
SN12C renal = test system: SN12C renal
HCC-2998 colon = test system: HCC-2998 colon
COLO 205 colon = test system: COLO 205 colon
MOLT-4 leukemia = test system: MOLT-4 leukemia
MALME-3M melanoma = test system: MALME-3M melanoma
SNB-75 CNS = test system: SNB-75 CNS
OVCAR-8 ovarian = test system: OVCAR-8 ovarian
NCI-H460 lung = test system: NCI-H460 lung
HT29 colon = test system: HT29 colon
OVCAR-3 ovarian = test system: OVCAR-3 ovarian
SNB-19 CNS = test system: SNB-19 CNS

Structure (SMILES): CC(CC=O)Nc1nn2c(=O)c3ccccc3nc2s1 (stereo unspecified)
- TGI (SF-539 CNS): > 100 µM
- TGI (T-47D breast): > 100 µM
- TGI (UACC-257 melanoma): > 100 µM
- TGI (IGROV1 ovarian): > 100 µM
- TGI (UO-31 renal): 48.1 µM
- TGI (SK-MEL-2 melanoma): > 100 µM
- TGI (HS 578T breast): > 100 µM
- TGI (SK-MEL-28 melanoma): > 100 µM
- TGI (NCI-H23 lung): > 100 µM
- TGI (SF-268 CNS): > 100 µM
- TGI (HCT-116 colon): > 100 µM
- TGI (TK-10 renal): > 100 µM
- TGI (SR leukemia): > 100 µM
- TGI (U251 CNS): > 100 µM
- TGI (BT-549 breast): > 100 µM
- TGI (DU-145 prostate): > 100 µM
- TGI (RXF 393 renal): > 100 µM
- TGI (KM12 colon): > 100 µM
- TGI (NCI-H522 lung): > 100 µM
- TGI (K-562 leukemia): > 100 µM
- TGI (A549 NSCLC): > 100 µM
- TGI (HOP-92 NSCLC): > 100 µM
- TGI (NCI/ADR-RES ovarian): > 100 µM
- TGI (EKVX NSCLC): > 100 µM
- TGI (HCT-15 colon): > 100 µM
- TGI (MDA-MB-435): > 100 µM
- TGI (PC-3 prostate): > 100 µM
- TGI (SK-MEL-5 melanoma): > 100 µM
- TGI (SK-OV-3 ovarian): > 100 µM
- TGI (RPMI-8226 leukemia): > 100 µM
- TGI (M14 melanoma): > 100 µM
- TGI (CAKI-1 renal): > 100 µM
- TGI (SW-620 colon): > 100 µM
- TGI (OVCAR-5 ovarian): > 100 µM
- TGI (UACC-62 melanoma): > 100 µM
- TGI (CCRF-CEM leukemia): > 100 µM
- TGI (OVCAR-4 ovarian): > 100 µM
- TGI (786-0 renal): > 100 µM
- TGI (A498 renal): > 100 µM
- TGI (NCI-H226 lung): > 100 µM
- TGI (ACHN renal): > 100 µM
- TGI (HOP-62 NSCLC): > 100 µM
- TGI (LOX IMVI melanoma): > 100 µM
- TGI (SF-295 CNS): > 100 µM
- TGI (MCF7 breast): > 100 µM
- TGI (SN12C renal): > 100 µM
- TGI (HCC-2998 colon): > 100 µM
- TGI (COLO 205 colon): > 100 µM
- TGI (MOLT-4 leukemia): > 100 µM
- TGI (MALME-3M melanoma): > 100 µM
- TGI (SNB-75 CNS): > 100 µM
- TGI (OVCAR-8 ovarian): > 100 µM
- TGI (NCI-H460 lung): > 100 µM
- TGI (HT29 colon): > 100 µM
- TGI (OVCAR-3 ovarian): > 100 µM
- TGI (SNB-19 CNS): > 100 µM
